Our source for the TGI values is PubChem BioAssay (NCI).

Assay in all cases: NCI-60 cell line screen, 48 h
The subject of test [1] is DU-145 prostate.
For test [2], the system named is HT29 colon.
Test [3] concerns IGROV1 ovarian.
Test [4] concerns MCF7 breast.
The subject of test [5] is NCI-H460 lung.
Test [6] relates to SK-MEL-2 melanoma.
The test system of test [7] is SK-MEL-28 melanoma.
Test [8] concerns SNB-19 CNS.
Test [9] relates to MOLT-4 leukemia.
Test [10] has as its system RPMI-8226 leukemia.

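1) Cells in 96-well plates. 2) Compound, 48 h, 5 concentrations. 3) Linear interpolation between surrounding doses. 4) Unreached endpoint = highest concentration. The concentration for full growth arrest is given as TGI.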

As to `Cn1/c(=N\N=C2\C=C3CCCCC3(C)CC2)sc2ccccc21` (stereo not given), the TGI in test [1], in test [2], in test [3], in test [4], in test [5] and in test [6] was more than 100 µM in each case. Moreover, the TGI in test [7] and in [8] was more than 100 µM throughout.
Regarding `COc1cc2c[n+]3c4c(c2c(OC)c1OC)CCCC4CC3` (stereo not given), the TGI in [1], in test [2], in test [3], in test [9], in test [5] and in test [10] was more than 100 µM each time. For the same compound, the TGI in test [6], in [7] and in test [8] was more than 100 µM in each case.
On to `COC(=O)c1sc(=O)sc1SCc1cccc(CSc2sc(=O)sc2C(=O)OC)c1`, for which the TGI in test [1], in [2], in test [3], in test [4], in test [9] and in test [5] was more than 100 µM throughout. Further, the TGI in test [6] was more than 100 µM; in test [7], more than 100 µM; in [8], 61.6 µM.
For `NC(=O)CCC(N=c1c2ccccc2n(O)c2ccccc12)C(=O)O` (stereo not given), the TGI in test [3] is more than 100 µM; in [9], more than 100 µM; in test [5], more than 100 µM; in [10], 97.3 µM; in test [6] it was more than 100 µM; in test [7], 89.4 µM. Further, in [8], the TGI is more than 100 µM.
For the compound `ClC1=NN=C(c2c[nH]c3ccccc23)CC1NCc1ccccc1` (stereo not given), the TGI in test [1], in test [2], in test [3], in test [9], in test [5] and in test [10] was more than 100 µM in each case. Also, the TGI in test [6], in [7] and in test [8] was more than 100 µM each time.
Take `COc1ccc(-c2ccc(C(=O)C=P(c3ccccc3)(c3ccccc3)c3ccccc3)cc2)cc1`: the TGI in [1] is 39.4 µM; in test [2], 19.4 µM; in [4], 30.2 µM; in test [9], 10.9 µM; in test [5], 20.5 µM; in test [10] it was 5.01 µM. The TGI was 32 µM in test [7] and more than 100 µM in [8].
`CC1=C(CO)C(=O)OC(C(C)C2CCC3C4CC5OC56C(O)C(N5CC5)=CC(=O)C6(C)C4CCC23C)C1` (stereo not given): the TGI is 13.7 µM in [2]; 14.4 µM in test [3]; 8.52 µM in test [9]; 25 µM in [5]; 17.8 µM in test [10]; 18.1 µM in [6]. The TGI in test [7] turned out to be 31.1 µM; in test [8] it was 9.56 µM.
Turning to `CCC1(O)CC(CCN(Cc2ccccc2)C(=O)OCc2ccccc2)C(OCc2ccccc2)C1O` (stereo not given), the TGI in test [1] was found to be 36.3 µM; in test [2], 31 µM; in [3] it was 37.4 µM; in [4] it was 28.8 µM; in test [9], 7.56 µM; in [5], 31.3 µM. The TGI was determined as 28.7 µM in [6], 36.4 µM in test [7] and 31.6 µM in [8].
With `CC(C)(C)C(=O)Nc1c(C=O)ccc2[nH]cnc12`, the TGI in test [3] was more than 100 µM; in test [4], more than 100 µM; in [9] it was 73.7 µM; in test [5] it was more than 100 µM; in [10], more than 100 µM; in test [6], more than 100 µM. Besides, the TGI in test [7] and in [8] was more than 100 µM throughout.
`CCOC(=O)c1c(N)sc2c1C(C(=O)OCC)CCCC2` (stereo not given): the TGI in [2], in test [3], in test [4], in test [9], in [5] and in test [10] was more than 100 µM each time. Further, the TGI in test [6], in [7] and in test [8] was more than 100 µM each time.
With `CCOc1ccc2nc(NC(=O)C(=O)C(C(=O)c3ccccc3F)C3OC(=O)c4ccccc43)sc2c1` (stereo not given), the TGI in test [3] is 83.2 µM; in test [9], more than 100 µM; in test [5], 39.5 µM; in test [10], 90 µM; in test [6], 39.1 µM; in test [7], 46.5 µM. Besides, the TGI in test [8] stood at 40.2 µM.
For `N[C@@H](CCC(=O)NC(Cc1ccccc1)C(=O)NCP(=O)(O)O)C(=O)O` (stereo not given in full), the TGI in test [2], in [3], in test [4], in test [9], in test [5] and in [10] was more than 100 µM throughout. In addition, the TGI in test [6], in test [7] and in test [8] was more than 100 µM in each case.
Take `C=C1CCC[C@@H](C)C(O)[C@@H]2OC(=O)C(=C)[C@@H]2C[C@@H](OC(C)=O)[C@@]2(C)CC[C@@H]1O2` (stereo not given in full): the TGI in [1] was 14.3 µM; in test [2], 15.3 µM; in [3], 15.4 µM; in [4] it was 11.6 µM; in test [9], 15.4 µM; in test [10], more than 50 µM. In addition, the TGI in test [6] is 15.8 µM; in [7] it was 15.1 µM; in [8], more than 50 µM.
Take `N#CCCC(C=O)(CCC#N)CCC#N`: the TGI in [1], in [2], in test [3], in [4], in test [5] and in [6] was more than 100 µM throughout. Also, the TGI in [7] and in [8] was more than 100 µM each time.
For `O=P1(N(CCCl)CCCl)Oc2ccc(Cl)cc2C(C(Cl)(Cl)Cl)c2cc(Cl)ccc2O1` (stereo not given), the TGI is more than 100 µM in test [1]; 18.9 µM in test [2]; 73.9 µM in test [4]; more than 100 µM in test [9]; 29.8 µM in [5]; more than 100 µM in [10]. For the same compound, the values for the TGI in [6] and in test [7] were 47.3 µM and more than 100 µM, respectively.
